One assay deals with TICs (Ovarian 2393A). The experiment in a line: Ovarian tumor-initiating cell growth inhibition (Alamar Blue). In kind it is cell-based. The settings on record: 144 h; Ovarian 2393A TICs, 6 days; read-out: Tumor Initiating Cell GI50 Range Ovarain 2393A.
The target in a further assay is T1, human TTK (Homo sapiens, UniProt P33981).
T1 construct: amino terminal GST fusion of full length human TTK; purchased Invitrogen
T1 sequence (P33981 1-857): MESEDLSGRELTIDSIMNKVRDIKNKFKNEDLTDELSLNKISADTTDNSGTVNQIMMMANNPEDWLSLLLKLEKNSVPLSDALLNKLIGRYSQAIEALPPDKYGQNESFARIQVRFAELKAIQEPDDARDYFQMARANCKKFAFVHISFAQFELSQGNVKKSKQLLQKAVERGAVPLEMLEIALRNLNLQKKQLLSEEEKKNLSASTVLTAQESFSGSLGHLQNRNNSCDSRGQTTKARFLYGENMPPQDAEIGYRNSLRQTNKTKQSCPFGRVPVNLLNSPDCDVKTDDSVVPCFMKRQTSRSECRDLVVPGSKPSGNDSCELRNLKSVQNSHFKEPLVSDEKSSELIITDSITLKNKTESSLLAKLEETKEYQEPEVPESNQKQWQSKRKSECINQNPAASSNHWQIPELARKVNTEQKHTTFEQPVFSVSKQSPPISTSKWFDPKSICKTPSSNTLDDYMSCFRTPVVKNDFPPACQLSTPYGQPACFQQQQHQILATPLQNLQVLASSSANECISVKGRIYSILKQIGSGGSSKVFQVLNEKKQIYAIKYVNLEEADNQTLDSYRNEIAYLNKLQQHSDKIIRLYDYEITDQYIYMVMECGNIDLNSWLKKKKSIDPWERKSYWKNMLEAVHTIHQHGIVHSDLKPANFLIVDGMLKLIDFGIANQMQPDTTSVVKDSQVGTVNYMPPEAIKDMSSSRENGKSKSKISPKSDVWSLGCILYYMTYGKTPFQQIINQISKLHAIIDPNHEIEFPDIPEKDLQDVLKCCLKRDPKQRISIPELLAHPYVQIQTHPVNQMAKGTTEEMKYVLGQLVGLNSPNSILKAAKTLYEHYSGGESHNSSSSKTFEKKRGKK
The experiment in a line: TTK inhibition assay (indirect ELISA). The note with it: read-out: TTK IC50 Range. Type of assay: biochemical. Background: ELISA stands for enzyme-linked immunosorbent assay.

Assay [1] concerns ovarian cancer cells (PA-1). Description: Cancer cell line growth inhibition (SRB assay). In kind it is cell-based. The note with it: Homo sapiens, PA-1; read-out: Cancer Cell Line GI50 Range PA-1. On the technique in general: The SRB assay estimates cell density from bound dye.
In another assay the test system is Breast cancer cells. Description: Cancer cell line growth inhibition (SRB assay). In kind it is cell-based. The settings on record: Homo sapiens; MDA-MB-468; read-out: Cancer Cell Line GI50 Range MDA-MB-468.
Assay [2] relates to colon cancer cells (HCT116). Description: Cancer cell line growth inhibition (SRB assay). Type of assay: cell-based. The settings on record: Homo sapiens, HCT-116; read-out: Cancer Cell Line GI50 Range HCT116.
The test system of the next assay is TICs (Colon 12). Description: Colon tumor-initiating cell growth inhibition (Alamar Blue). In kind it is cell-based. The note with it: 216 h; Colon 12 TICs, 9 days; read-out: Tumor Initiating Cell GI50 Range Colon 12. (In general: Alamar Blue is a resazurin reagent that responds to reducing activity.)
A further assay concerns the target T2, human PLK4 (Homo sapiens, UniProt O00444).
T2 construct: amino terminal GST fusion of residues 1-391 of human PLK4; made in house; host or cells: E. coli
T2 sequence (O00444 1-391): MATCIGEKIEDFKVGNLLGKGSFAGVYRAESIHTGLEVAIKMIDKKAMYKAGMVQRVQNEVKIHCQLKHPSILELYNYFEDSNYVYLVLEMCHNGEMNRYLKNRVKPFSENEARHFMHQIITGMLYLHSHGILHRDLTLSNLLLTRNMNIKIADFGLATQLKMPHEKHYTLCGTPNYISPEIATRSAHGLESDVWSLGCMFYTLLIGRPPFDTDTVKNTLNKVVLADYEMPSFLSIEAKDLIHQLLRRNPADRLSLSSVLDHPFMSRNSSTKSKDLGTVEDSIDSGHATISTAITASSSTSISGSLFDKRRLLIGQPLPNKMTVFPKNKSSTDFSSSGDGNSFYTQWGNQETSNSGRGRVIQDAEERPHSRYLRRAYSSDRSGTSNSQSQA
Description: PLK4 inhibition assay (indirect ELISA). Type of assay: biochemical. The settings on record: 15 μM ATP. The gist of the method: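 Dephosphorylated GST-PLK4 (residues 1-391, E. coli; 4 nM) was preincubated 15 min with compound, then reacted 30 min with 15 μM ATP in HEPES pH 7.4, MgCl2, Brij 35 on MBP-coated plates. Phospho-MBP was detected by antibody/HRP ELISA at 450 nm; IC50 from 10-point titration by 4-parameter logistic fit, or single 10 μM % inhibition.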

As to `CC(C)[C@H](NC(=O)c1ccc2[nH]nc(-c3ccc(OC4CC5CCC(C4)N5CCO)cc3)c2c1)c1ccccc1Cl` (stereo partly drawn) [Example A337, N-((S)-1-(2-chlorophenyl)-2-methylpropyl)-3-(4-(((1R,3R,5S)-8-(2-hydroxyethyl)-8-azabicyclo[3.2.1]octan-3-yl)oxy)phenyl)-1H-indazole-5-carboxamide], the concentration for 50% growth inhibition (GI50) (in the assay on TICs (Ovarian 2393A); in assay [1]; with Breast cancer cells; in assay [2]; in the assay with TICs (Colon 12)) was less than 100 nM throughout. The IC50 (usually the midpoint of a concentration-inhibition curve) on human TTK was less than 100 nM; at human PLK4, less than 50 nM.

On to `CN1C2CCC1CC(Oc1ccc(-c3n[nH]c4ccc(C(=O)N[C@H](c5ccccc5Cl)C5CC5)cc34)cc1)C2` (stereo partly drawn) [Example A235, N-((S)-(2-chlorophenyl)(cyclopropyl)methyl)-3-(4-(((1R,3R,5S)-8-methyl-8-azabicyclo[3.2.1]octan-3-yl)oxy)phenyl)-1H-indazole-5-carboxamide], for which the concentration for 50% growth inhibition (GI50) (with TICs (Ovarian 2393A); in assay [1]; with Breast cancer cells; in assay [2]; with TICs (Colon 12)) was less than 100 nM each time. The values for the 50% inhibitory concentration (IC50) on human TTK and at human PLK4 were less than 100 nM and less than 50 nM, respectively.

For `CC(C)CC(NC(=O)c1ccc2[nH]nc(-c3ccc(N4CCN(C5COC5)CC4)cc3)c2c1)c1ccccc1Cl` (stereo not shown) [Example A298, N-(1-(2-chlorophenyl)-3-methylbutyl)-3-(4-(4-(oxetan-3-yl)piperazin-1-yl)phenyl)-1H-indazole-5-carboxamide], the concentration for 50% growth inhibition (GI50) (with TICs (Ovarian 2393A); in assay [1]; in the assay on Breast cancer cells; in assay [2]; in the assay on TICs (Colon 12)) was less than 100 nM throughout. The IC50 at human TTK is less than 100 nM; at human PLK4 it was less than 50 nM.

For `CC(C)C[C@H](NC(=O)c1ccc2[nH]nc(-c3ccc(OC4CC5CCC(C4)N5C=O)cc3)c2c1)c1ccccn1` (stereo partly drawn) [Example A358, 3-(4-(((1R,3R,5S)-8-formyl-8-azabicyclo[3.2.1]octan-3-yl)oxy)phenyl)-N-((S)-3-methyl-1-(pyridin-2-yl)butyl)-1H-indazole-5-carboxamide], the GI50 (in the assay with TICs (Ovarian 2393A); in assay [1]; with Breast cancer cells; in assay [2]; in the assay with TICs (Colon 12)) was less than 100 nM each time. Moreover, the half-inhibitory concentration (IC50) at human TTK was less than 100 nM; at human PLK4, less than 50 nM.

As for `CC(C)[C@H](NC(=O)c1ccc2[nH]nc(-c3ccc(OC4CCN(C=O)CC4)cc3)c2c1)c1ccccc1Cl` [Example A334, (S)-N-(1-(2-chlorophenyl)-2-methylpropyl)-3-(4-((1-formylpiperidin-4-yl)oxy)phenyl)-1H-indazole-5-carboxamide], the 50% growth inhibitory concentration (GI50) (with TICs (Ovarian 2393A); in assay [1]; in assay [2]; in the assay on TICs (Colon 12)) was less than 100 nM throughout. In addition, the half-inhibitory concentration (IC50) at human TTK was less than 100 nM; at human PLK4 it was less than 50 nM.

As for `CC(C)[C@@H](NC(=O)c1ccc2[nH]nc(-c3ccc(OC4CCN(C)CC4)cc3)c2c1)c1ccccc1Cl` [Example A274, (R)-N-(1-(2-chlorophenyl)-2-methylpropyl)-3-(4-((1-methylpiperidin-4-yl)oxy)phenyl)-1H-indazole-5-carboxamide], the concentration for 50% growth inhibition (GI50) (usually the concentration at which growth is held to half of that of the control) was 100 to 500 nM in the assay with TICs (Ovarian 2393A); 100 to 500 nM in assay [1]; more than 500 nM in the assay with Breast cancer cells; 100 to 500 nM in assay [2]; 100 to 500 nM with TICs (Colon 12). Besides, the half-maximal inhibitory concentration (IC50) on human TTK was less than 100 nM; on human PLK4, less than 50 nM.

As to `CC(C)[C@H](NC(=O)c1ccc2[nH]nc(-c3ccc(OC4CC5CCC(C4)N5C=O)cc3)c2c1)c1ccccc1Cl` (stereo partly shown) [Example A333], the GI50 (in the assay on TICs (Ovarian 2393A); in assay [1]; in assay [2]; in the assay on TICs (Colon 12)) was less than 100 nM throughout. Also, the IC50 on human TTK is less than 100 nM; on human PLK4, less than 50 nM.

On to `CC(C)[C@H](NC(=O)c1ccc2[nH]nc(-c3ccc(OC4CC5CCC(C4)N5C)cc3)c2c1)c1ccccc1Cl` (stereo partly drawn) [Example A287, N-((S)-1-(2-chlorophenyl)-2-methylpropyl)-3-(4-(((1R,3R,5S)-8-methyl-8-azabicyclo[3.2.1]octan-3-yl)oxy)phenyl)-1H-indazole-5-carboxamide], for which the GI50 in the assay on TICs (Ovarian 2393A) is 100 to 500 nM; in assay [1] it was less than 100 nM; with Breast cancer cells, less than 100 nM; in assay [2], less than 100 nM; with TICs (Colon 12) it was 100 to 500 nM. The results for the IC50 at human TTK and on human PLK4 were less than 100 nM and less than 50 nM, respectively.

As to `CN1C2CCC1CC(Oc1ccc(-c3n[nH]c4ccc(C(=O)N[C@@H](c5ccsc5)C5CCCC5)cc34)cc1)C2` (stereo partly drawn) [Example A247, N-((R)-cyclopentyl(thiophen-3-yl)methyl)-3-(4-(((1R,3R,5S)-8-methyl-8-azabicyclo[3.2.1]octan-3-yl)oxy)phenyl)-1H-indazole-5-carboxamide], the concentration for 50% growth inhibition (GI50) (with TICs (Ovarian 2393A); in assay [1]; in the assay on Breast cancer cells; in assay [2]; in the assay with TICs (Colon 12)) was 100 to 500 nM each time. Further, the IC50 is less than 100 nM on human TTK and less than 50 nM on human PLK4.

In the case of `CC(C)C[C@H](NC(=O)c1ccc2[nH]nc(-c3ccc(N4CCN(C5COC5)CC4)cc3)c2c1)c1ccccc1Cl` [Example A299, (S)-N-(1-(2-chlorophenyl)-3-methylbutyl)-3-(4-(4-(oxetan-3-yl)piperazin-1-yl)phenyl)-1H-indazole-5-carboxamide], the concentration for 50% growth inhibition (GI50) (in the assay with TICs (Ovarian 2393A); in assay [1]; in the assay on Breast cancer cells; in assay [2]; in the assay on TICs (Colon 12)) was less than 100 nM each time. Besides, the IC50 is less than 100 nM on human TTK and less than 50 nM on human PLK4.

In the case of `CN1C2CCC1CC(Oc1ccc(-c3n[nH]c4ccc(C(=O)N[C@@H](c5ccccc5Cl)C5CC5)cc34)cc1)C2` (stereo partly drawn) [Example A234, N-((R)-(2-chlorophenyl)(cyclopropyl)methyl)-3-(4-(((1R,3R,5S)-8-methyl-8-azabicyclo[3.2.1]octan-3-yl)oxy)phenyl)-1H-indazole-5-carboxamide], the 50% growth inhibitory concentration (GI50) with TICs (Ovarian 2393A) was 100 to 500 nM; in assay [1], less than 100 nM; with Breast cancer cells it was 100 to 500 nM; in assay [2] it was less than 100 nM; in the assay with TICs (Colon 12), 100 to 500 nM. Moreover, the half-maximal inhibitory concentration (IC50) at human TTK was less than 100 nM; on human PLK4, less than 50 nM.

As to `C[C@@H](O)CN1CCC(Oc2ccc(-c3n[nH]c4ccc(C(=O)N[C@@H](c5ccsc5)C5CCCC5)cc34)cc2)CC1` [Example A222, N-((R)-cyclopentyl(thiophen-3-yl)methyl)-3-(4-((1-((R)-2-hydroxypropyl)piperidin-4-yl)oxy)phenyl)-1H-indazole-5-carboxamide], the GI50 with TICs (Ovarian 2393A) was 100 to 500 nM; in assay [1], less than 100 nM; in the assay with Breast cancer cells it was 100 to 500 nM; in assay [2], less than 100 nM; with TICs (Colon 12), less than 100 nM. The half-inhibitory concentration (IC50) at human TTK was less than 100 nM; at human PLK4, less than 50 nM.

The values above are taken from patent US9580390B2, “Indazole compounds as kinase inhibitors and method of treating cancer with same” (University Health Network, priority 2011, dated 2017).
